Assay results as given in ChEMBL document CHEMBL1201862, “PubChem BioAssay data set” (2004).
Activity calls are given as the source filed them.

Experiments:
Type in all cases: functional
CHO-K1 = experiment: (§1) Counterscreen for antagonists of the orexin 1 receptor (OX1R; HCRTR1): Homogeneous time resolved fluorescence (HTRF)-based cell-based dose response assay to identify antagonists of the parental CHO-K1 cell line. [Related pubchem assays (depositor defined):AID434989, AID435008, AID463079, AID485270, AID492963, AID492964, AID492965, AID493232, AID504699, AID504701]; settings: Cricetulus griseus
[1] = biological target: Multidrug resistance protein CDR1 (Candida albicans, UniProt P43071); experiment: CaCdr1 efflux pump inhibitor potency, dose response, singleplex, Cherry Pick2 set (AID 623996); settings: read-out: EC50_MICROM
[2] = as §1, with “Fluorescence-based” for “Homogeneous time resolved fluorescence (HTRF)-based”, “cell-based high throughput” for “cell-based”, “CHO” for “CHO-K1”
[3] = biological target: Multidrug resistance protein CDR2 (Candida albicans (strain SC5314 / ATCC MYA-2876) (Yeast), UniProt P78595); experiment: CaCDR2 efflux pump inhibitors in yeast, dose response, S. cerevisiae AD1-8u, singleplex, Cherry Pick2 set (AID 623994); settings: read-out: EC50_MICROM
[4] = biological target: Benomyl/methotrexate resistance protein (Candida albicans, UniProt P28873); experiment: CaMdr1 efflux pump inhibitor potency, dose response, singleplex, Cherry Pick2 set (AID 623992); settings: read-out: EC50_MICROM
[5] = Luminescence Cell-Based Dose Retest to Confirm Inhibitors of Cancer Stem Cells. [Related pubchem assays (depositor defined):AID2717, AID2721]; settings: Homo sapiens
[6] = biological target: T1, Orexin/Hypocretin receptor type 1 (Homo sapiens, UniProt O43613); experiment: (§2) Fluorescence-based cell-based high throughput dose response assay for antagonists of the orexin 1 receptor (OX1R; HCRTR1). [Related pubchem assays (depositor defined):AID434989, AID435008, AID463079, AID485270, AID492963, AID492964, AID492965, AID493232, AID504717, AID504718]
T1 sequence (O43613 whole entry): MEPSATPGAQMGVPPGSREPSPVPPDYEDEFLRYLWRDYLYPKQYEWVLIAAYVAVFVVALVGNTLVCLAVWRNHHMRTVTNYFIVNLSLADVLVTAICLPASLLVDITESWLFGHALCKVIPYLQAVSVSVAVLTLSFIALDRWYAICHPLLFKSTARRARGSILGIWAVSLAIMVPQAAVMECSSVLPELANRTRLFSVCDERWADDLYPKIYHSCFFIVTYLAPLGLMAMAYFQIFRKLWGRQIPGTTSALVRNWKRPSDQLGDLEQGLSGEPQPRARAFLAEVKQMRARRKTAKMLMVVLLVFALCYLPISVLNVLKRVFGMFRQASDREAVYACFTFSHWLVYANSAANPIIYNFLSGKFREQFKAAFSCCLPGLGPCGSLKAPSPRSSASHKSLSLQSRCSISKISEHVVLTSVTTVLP

[7] = biological target: T1, Orexin/Hypocretin receptor type 1; experiment: as §2, with “Homogeneous Time Resolved Fluorescence (HTRF)-based” for “Fluorescence-based”
[8] = biological target: T2, Ubiquitin-conjugating enzyme E2 N (Homo sapiens, UniProt P61088);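 also: Dose-response confirmation in a TR-FRET assay detecting UBC13-driven polyubiquitin chain formation, inhibition measured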
T2 sequence (P61088 whole entry): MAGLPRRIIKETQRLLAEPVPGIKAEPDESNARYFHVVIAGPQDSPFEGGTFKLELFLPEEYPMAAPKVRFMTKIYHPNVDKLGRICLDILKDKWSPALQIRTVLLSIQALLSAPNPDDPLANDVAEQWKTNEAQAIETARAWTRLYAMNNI

[9] = biological target: T3, Sentrin-specific protease 6 (Homo sapiens, UniProt Q9GZR1);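 also: Luminescence-based dose-response confirmatory assay of SENP6 inhibition, following up an ultra-high-throughput screen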
T3 sequence (Q9GZR1 whole entry): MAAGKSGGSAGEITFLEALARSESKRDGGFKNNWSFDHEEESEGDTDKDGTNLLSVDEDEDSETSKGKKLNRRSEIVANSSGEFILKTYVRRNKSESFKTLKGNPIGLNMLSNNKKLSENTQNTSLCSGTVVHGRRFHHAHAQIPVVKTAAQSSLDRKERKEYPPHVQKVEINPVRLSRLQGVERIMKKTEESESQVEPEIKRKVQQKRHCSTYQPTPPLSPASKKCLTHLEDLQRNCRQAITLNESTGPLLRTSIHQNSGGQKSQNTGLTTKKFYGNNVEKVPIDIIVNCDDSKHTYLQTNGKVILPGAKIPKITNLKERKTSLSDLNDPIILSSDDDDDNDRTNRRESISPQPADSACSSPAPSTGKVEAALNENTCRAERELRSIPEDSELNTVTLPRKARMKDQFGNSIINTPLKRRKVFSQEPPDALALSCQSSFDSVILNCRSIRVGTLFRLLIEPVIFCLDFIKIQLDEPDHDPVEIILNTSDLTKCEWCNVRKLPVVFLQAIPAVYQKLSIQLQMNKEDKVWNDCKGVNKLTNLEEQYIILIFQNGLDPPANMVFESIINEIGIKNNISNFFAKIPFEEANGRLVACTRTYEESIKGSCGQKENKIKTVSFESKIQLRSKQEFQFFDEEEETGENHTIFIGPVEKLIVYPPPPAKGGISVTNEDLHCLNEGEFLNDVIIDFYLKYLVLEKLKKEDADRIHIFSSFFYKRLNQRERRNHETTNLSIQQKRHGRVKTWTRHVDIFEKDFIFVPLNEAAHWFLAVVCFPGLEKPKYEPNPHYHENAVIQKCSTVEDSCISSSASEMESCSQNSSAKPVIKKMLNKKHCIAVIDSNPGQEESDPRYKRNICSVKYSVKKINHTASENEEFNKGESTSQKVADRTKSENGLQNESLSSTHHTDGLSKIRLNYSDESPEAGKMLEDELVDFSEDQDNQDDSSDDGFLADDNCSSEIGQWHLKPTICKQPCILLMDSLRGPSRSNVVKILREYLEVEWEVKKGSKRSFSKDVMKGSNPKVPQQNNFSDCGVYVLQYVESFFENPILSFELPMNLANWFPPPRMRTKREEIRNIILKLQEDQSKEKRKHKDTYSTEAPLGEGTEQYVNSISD

Caspase-3 = biological target: T4, Caspase-3 (Homo sapiens, UniProt P42574);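 also: Dose-response selectivity test against caspase-3 for candidate inhibitors of sentrin-specific proteases (SENPs)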
T4 sequence (P42574 whole entry): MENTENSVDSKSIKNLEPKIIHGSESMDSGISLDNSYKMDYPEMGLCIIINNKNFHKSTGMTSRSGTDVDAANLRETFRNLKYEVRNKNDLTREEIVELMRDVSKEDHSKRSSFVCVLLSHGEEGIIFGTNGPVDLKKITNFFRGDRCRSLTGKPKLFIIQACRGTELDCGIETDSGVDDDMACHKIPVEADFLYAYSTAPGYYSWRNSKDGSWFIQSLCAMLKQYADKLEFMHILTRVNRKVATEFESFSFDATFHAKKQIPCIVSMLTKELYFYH

[10] = biological target: T5, Sentrin-specific protease 8 (Homo sapiens, UniProt Q96LD8);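 also: luminescence read-out of SENP8 inhibition, dose-response confirmation following an ultra-high-throughput screen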
T5 sequence (Q96LD8 whole entry): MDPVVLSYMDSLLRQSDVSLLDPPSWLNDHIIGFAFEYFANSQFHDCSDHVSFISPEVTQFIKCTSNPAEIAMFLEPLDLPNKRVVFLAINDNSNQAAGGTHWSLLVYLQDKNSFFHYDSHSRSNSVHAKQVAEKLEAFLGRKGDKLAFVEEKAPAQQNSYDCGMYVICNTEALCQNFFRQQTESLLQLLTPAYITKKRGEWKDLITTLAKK

[11] = biological target: T6, High affinity choline transporter 1 (Homo sapiens, UniProt Q9GZV3); experiment: CHT inhibitors, dose response, cell-based, 10-point CRC, membrane potential dye (AID 588401);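 also: membrane potential dye fluorescence of choline-evoked depolarization via CHT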
T6 sequence (Q9GZV3 whole entry): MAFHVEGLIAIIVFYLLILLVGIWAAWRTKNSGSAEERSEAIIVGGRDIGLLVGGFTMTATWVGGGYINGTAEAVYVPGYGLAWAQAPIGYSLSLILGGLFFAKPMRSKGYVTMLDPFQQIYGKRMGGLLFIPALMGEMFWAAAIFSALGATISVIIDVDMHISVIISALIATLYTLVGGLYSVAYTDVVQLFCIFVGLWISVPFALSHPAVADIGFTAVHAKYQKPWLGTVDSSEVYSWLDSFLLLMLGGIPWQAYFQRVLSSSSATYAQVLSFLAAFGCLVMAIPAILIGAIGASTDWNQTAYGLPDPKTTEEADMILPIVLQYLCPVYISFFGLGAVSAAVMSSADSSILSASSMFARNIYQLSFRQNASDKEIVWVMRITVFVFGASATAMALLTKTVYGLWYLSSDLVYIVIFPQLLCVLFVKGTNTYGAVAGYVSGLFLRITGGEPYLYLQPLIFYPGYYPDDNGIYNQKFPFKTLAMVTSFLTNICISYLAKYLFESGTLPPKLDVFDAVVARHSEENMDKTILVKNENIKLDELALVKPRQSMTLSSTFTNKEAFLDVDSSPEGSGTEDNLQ

[12] = biological target: T7, Sentrin-specific protease 7 (Homo sapiens, UniProt Q9BQF6);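 also: Luminescence-based dose-response confirmation of ultra-high-throughput screening hits, measuring inhibition of SENP7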
T7 sequence (Q9BQF6 whole entry): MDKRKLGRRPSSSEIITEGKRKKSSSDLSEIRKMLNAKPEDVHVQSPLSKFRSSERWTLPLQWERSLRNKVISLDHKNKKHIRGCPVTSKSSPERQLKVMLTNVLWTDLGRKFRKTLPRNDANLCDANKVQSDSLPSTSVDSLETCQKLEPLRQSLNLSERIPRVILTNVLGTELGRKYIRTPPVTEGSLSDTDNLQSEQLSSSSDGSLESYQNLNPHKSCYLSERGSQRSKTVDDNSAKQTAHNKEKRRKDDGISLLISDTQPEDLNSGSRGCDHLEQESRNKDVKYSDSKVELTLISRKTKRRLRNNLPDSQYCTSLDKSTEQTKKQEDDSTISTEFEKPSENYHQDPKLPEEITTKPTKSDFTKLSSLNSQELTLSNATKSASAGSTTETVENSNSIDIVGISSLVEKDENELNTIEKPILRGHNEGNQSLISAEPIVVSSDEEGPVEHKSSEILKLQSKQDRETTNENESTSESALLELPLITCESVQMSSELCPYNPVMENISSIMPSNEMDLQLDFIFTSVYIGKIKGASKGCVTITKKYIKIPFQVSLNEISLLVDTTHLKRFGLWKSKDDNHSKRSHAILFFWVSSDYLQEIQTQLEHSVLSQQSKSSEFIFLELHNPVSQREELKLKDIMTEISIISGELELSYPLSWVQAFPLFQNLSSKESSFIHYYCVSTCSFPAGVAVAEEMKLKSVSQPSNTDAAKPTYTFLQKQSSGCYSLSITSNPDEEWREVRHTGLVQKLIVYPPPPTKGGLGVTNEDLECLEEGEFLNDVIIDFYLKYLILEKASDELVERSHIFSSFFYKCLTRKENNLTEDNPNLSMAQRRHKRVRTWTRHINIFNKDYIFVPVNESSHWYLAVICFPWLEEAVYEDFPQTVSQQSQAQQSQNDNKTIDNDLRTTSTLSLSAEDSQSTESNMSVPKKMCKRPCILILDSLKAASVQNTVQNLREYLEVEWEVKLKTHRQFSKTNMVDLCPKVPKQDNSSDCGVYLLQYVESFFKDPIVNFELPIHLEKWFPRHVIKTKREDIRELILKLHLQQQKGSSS

[13] = biological target: T6, High affinity choline transporter 1; experiment: CHT inhibitors, dose response, cell-based, 5-point CRC, membrane potential dye (AID 504840)
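For AC50 in this document: cells exposed to compound for roughly 70 hours or longer before luminescence read.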

Benomyl/methotrexate resistance protein, sequence (P28873 whole entry): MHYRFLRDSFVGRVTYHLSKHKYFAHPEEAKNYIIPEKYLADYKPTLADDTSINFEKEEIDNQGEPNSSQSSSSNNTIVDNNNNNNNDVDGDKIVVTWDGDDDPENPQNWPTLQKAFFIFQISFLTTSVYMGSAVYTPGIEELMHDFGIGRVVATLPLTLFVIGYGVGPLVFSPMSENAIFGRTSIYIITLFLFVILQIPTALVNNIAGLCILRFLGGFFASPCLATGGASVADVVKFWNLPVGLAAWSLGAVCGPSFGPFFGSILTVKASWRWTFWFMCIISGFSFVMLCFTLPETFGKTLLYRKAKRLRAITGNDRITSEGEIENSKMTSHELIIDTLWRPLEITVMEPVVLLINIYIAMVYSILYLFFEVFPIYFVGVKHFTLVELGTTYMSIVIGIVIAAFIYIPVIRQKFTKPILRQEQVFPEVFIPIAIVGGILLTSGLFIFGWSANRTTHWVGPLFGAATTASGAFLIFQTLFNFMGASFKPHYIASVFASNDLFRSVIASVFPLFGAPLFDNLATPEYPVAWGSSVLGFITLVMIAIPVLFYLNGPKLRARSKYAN
Multidrug resistance protein CDR1, sequence (P43071 whole entry, looked up): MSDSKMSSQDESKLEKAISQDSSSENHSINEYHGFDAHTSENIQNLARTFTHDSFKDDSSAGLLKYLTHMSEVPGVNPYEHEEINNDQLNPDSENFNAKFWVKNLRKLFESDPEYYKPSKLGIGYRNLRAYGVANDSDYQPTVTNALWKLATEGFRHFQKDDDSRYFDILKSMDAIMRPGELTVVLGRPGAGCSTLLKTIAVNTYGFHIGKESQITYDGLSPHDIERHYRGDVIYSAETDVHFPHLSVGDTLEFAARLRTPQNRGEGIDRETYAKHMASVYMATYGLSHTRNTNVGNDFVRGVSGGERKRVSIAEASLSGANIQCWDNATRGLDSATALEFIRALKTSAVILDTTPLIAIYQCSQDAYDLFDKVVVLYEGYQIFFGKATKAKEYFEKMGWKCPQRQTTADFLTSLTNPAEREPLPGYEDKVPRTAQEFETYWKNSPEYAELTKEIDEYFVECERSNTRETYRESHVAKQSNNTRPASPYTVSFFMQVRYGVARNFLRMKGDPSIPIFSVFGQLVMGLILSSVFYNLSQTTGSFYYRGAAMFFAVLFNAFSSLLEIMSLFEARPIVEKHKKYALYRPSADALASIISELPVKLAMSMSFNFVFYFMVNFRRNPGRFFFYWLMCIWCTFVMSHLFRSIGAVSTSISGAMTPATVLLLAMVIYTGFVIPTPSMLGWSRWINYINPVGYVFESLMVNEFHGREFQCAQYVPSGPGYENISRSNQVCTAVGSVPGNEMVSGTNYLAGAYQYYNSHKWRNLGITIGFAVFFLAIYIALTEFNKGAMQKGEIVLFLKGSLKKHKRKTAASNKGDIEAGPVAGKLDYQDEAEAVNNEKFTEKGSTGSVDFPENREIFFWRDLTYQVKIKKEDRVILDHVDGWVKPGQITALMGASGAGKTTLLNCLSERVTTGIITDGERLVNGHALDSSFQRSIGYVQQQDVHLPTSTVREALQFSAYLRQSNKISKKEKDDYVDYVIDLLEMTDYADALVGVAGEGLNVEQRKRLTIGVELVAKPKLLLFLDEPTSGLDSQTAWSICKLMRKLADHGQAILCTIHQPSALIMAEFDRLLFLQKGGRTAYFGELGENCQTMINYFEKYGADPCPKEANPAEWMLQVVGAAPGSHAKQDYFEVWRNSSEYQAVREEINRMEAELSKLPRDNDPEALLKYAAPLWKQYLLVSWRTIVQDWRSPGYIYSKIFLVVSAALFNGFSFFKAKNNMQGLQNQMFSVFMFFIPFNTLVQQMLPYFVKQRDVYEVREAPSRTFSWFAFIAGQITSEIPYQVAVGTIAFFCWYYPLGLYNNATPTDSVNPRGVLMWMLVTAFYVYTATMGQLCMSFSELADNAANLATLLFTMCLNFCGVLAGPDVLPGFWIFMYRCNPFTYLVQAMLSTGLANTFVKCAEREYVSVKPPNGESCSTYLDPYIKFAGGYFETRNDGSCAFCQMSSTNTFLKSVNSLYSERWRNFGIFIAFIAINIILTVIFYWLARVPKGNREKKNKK
Multidrug resistance protein CDR2, sequence (P78595 whole entry): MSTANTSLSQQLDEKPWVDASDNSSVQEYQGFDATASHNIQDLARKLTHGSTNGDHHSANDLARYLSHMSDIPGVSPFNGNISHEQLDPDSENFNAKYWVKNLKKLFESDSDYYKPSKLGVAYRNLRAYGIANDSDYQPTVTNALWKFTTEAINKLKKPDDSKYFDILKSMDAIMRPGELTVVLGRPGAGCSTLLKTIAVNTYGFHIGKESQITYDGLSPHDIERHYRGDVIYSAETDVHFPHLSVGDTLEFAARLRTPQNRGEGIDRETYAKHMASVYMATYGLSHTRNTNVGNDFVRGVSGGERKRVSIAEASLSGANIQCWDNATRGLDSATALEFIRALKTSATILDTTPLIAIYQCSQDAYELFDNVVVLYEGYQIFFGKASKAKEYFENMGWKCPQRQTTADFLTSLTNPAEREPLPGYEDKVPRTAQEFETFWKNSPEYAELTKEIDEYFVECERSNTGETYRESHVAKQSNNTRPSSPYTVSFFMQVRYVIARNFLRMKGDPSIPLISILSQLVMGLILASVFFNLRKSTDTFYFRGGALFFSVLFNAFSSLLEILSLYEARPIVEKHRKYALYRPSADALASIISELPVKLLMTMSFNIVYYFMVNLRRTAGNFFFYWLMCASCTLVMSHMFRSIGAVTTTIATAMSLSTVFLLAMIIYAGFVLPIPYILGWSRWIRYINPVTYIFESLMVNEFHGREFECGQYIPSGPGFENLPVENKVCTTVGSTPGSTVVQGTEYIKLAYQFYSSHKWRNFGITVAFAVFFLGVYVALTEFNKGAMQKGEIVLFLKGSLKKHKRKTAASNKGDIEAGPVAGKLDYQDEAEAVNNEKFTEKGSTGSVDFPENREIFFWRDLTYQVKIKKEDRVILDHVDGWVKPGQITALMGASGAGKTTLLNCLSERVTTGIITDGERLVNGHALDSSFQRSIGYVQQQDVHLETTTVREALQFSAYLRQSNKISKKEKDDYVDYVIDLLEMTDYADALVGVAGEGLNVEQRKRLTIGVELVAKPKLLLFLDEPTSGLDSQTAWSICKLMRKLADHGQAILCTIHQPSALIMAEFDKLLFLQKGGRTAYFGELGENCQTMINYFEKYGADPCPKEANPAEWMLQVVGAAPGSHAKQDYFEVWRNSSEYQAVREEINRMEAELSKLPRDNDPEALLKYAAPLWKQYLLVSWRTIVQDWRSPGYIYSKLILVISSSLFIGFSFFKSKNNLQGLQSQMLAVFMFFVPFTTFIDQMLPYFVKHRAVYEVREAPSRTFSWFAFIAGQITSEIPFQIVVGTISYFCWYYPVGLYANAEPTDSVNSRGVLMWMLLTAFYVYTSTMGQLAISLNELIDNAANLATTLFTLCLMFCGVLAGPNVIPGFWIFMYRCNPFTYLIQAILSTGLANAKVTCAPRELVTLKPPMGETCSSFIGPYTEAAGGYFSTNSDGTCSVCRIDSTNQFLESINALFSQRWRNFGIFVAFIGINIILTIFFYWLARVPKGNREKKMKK

Row | Compound | IC50 (CHO-K1) | EC50 [1] | IC50 [2] | EC50 [3] | EC50 [4] | AC50 [5] | IC50 [6] | IC50 [7] | IC50 [8] | IC50 [9] | IC50 (Caspase-3) | IC50 [10] | IC50 [11] | IC50 [12] | IC50 [13]
1 | COc1cccc(-c2sc3ccc(OC)cc3c2-c2ccc(OCCN(C)C)cc2)c1 | > 66.2 µM (inactive) | 26.8 µM (active) | 17.5 µM (inactive) | 15.2 µM (active) | 32.1 µM (active) | 3.37 µM (active) | 15.8 µM (inactive) | > 66.2 µM (inactive) | > 20 µM (inactive) |  |  |  |  |  | 
2 | Cn1c(SCc2ccc(C#N)cc2Cl)nc2ccccc21 |  |  |  |  |  |  |  |  |  | 10.8 µM (active) | 8.4 µM (active) | 14.8 µM (active) | 3.4 µM (active) | 4.57 µM (active) | 3.99 µM (active)
